The structures appear in SMILES notation. Like-named read-outs stand apart in the source and are kept apart here.

Consider five compounds from publication PMC11637191, “The pH-dependence of efflux ratios determined with bidirectional transport assays across cellular monolayers” (International Journal of Pharmaceutics: X, 2024).

Data set [1] relates to MDCK-MDR1 cells. To be noted: cited from earlier work.
The test system of data set [2] is MDCK-MDR1 cells. The following applies: MDCK-MDR1, pH 7.4.
Data set [3] can be described thus: in vitro. To be noted: dog.
In data set [4] the test system is P-gp (MDR1). Nature of the data set: in vitro. The following applies: dog.
For data set [5], the system named is P-gp (MDR1). Nature of the data set: in vitro. The following applies: dog, MDCK-MDR1, Papp, B⟶A.
Data set [6] in a line: Calculation of neutral fraction (fn).
Data set [7] relates to MDCK-II-MDR1 cells. The following applies: intrinsic membrane permeability, calculated from Papp, A⟶B with elacridar.
Description: Briefly, cells (passage 20–40) were seeded onto 12-well PET inserts (CellQART, Northeim, Germany; pore size: 0.4 μm; filter thickness: 11.5 μm, 100×10^6 pores/cm^2) at a density of 1.5×10^5 cells/insert. […] One day before the experiments, the cell medium was refreshed. For P0 determination, inserts were pre-incubated with the P-gp inhibitor elacridar (2 μM) for 30 min in HBSS pH 7.4. The transport rates in both directions of the test compounds were determined in duplicate or triplicate for 4–5 different pH values between pH 5 and pH 9. The transport buffer was HBSS buffered with 10 mM MES for pH 5 and 6, 25 mM HEPES for pH 7, 7.4 and 8, and 10 mM TAPS for pH 9. Stock solutions were prepared in the transport buffer and pre-warmed to 37 °C. Additional stock solutions with 2 μM elacridar were prepared at suitable pH values to measure P0 values in tandem. The pH of all buffer and stock solutions, as well as the pH of all samples after experiment completion, was controlled with a rapid pH automated pH meter (Hudson Robotics, Inc., Springfield, NJ, USA). Inserts were used in 12-well plates (TPP Techno Plastic Products AG, Trasadingen, Switzerland). […] Timestep length was determined individually for each compound and direction measured to ensure sink conditions. […]
to ensure that measured transport rates would not be affected by active efflux .
The subject of data set [8] is MDCK-II-MDR1 cells.
The conditions of data set [9]: determined 25 °C; etoposide acidic, acebutolol basic; ref Avdeef, 2012; cited from earlier work.
For data set [10] the following is noted: no reference given; cited from earlier work.

Take `CC(C)N(CCC(c1ccccc1)c1cc(CO)ccc1O)C(C)C` (centres unmarked) [5-Hydroxymethyl Tolterodine]: in data set [1] (MDCK-MDR1, pH 7.4), the “Papp, B⟶A” value was 6.3e-05 cm/s and the “Papp, inhibitor” value is 1.1e-05 cm/s. Moreover, the Factor difference in data set [2] is reported as 6.
With `COc1cc2c(c(OC)c1OC)-c1ccc(OC)c(=O)cc1[C@@H](NC(C)=O)CC2` [Colchicine], in [1] (MDCK-MDR1, pH 7.4), the “Papp, B⟶A” value was 1.19e-05 cm/s. The “Papp, inhibitor” value in [1] (MDCK-MDR1, pH 7.4) is 1.64e-06 cm/s. For the same compound, the recovery lay in the range of 100 to 120% in data set [3] (MDCK-MDR1, pH 5); 78 to 109% in data set [3] (MDCK-MDR1, pH 6); 98 to 110% in data set [3] (MDCK-MDR1, pH 7); 96 to 102% in [3] (MDCK-MDR1, pH 8); 92 to 100% in data set [3] (MDCK-MDR1, pH 9). For the same compound, the Papp in data set [4] (MDCK-MDR1, pH 5) was 5.2 ± 1.5 nm/s; in data set [4] (MDCK-MDR1, pH 6) it was 2 ± 0.4 nm/s; in [4] (MDCK-MDR1, pH 7), 1.6 ± 0.4 nm/s; in data set [4] (MDCK-MDR1, pH 8), 2 ± 0.5 nm/s; in data set [4] (MDCK-MDR1, pH 9), 4.1 ± 0.6 nm/s; in [5], 63.3 nm/s. In addition, the Papp B→A in data set [4] (MDCK-MDR1, pH 5) turned out to be 21.2 ± 1.4 nm/s; in data set [4] (MDCK-MDR1, pH 6), 44.2 ± 3.3 nm/s; in [4] (MDCK-MDR1, pH 7), 50.3 ± 5.8 nm/s; in data set [4] (MDCK-MDR1, pH 8), 63.3 ± 6.2 nm/s; in data set [4] (MDCK-MDR1, pH 9), 58.9 ± 11.4 nm/s. Besides, in data set [6] (neutral fraction at pH 8), the fn is 100%. Besides, in data set [7], the LogP0 is listed as -5.9 P in cm/s. This compound also displayed a Factor difference in [2] (dog) of 7.
In the case of `COc1cc([C@@H]2c3cc4c(cc3[C@@H](O[C@@H]3O[C@@H]5CO[C@@H](C)O[C@H]5[C@H](O)[C@H]3O)[C@H]3COC(=O)[C@H]23)OCO4)cc(OC)c1O` [Etoposide], the “Papp, inhibitor” value in data set [1] (with inhibitor, pH 7.4 iso-method, ref Troutman and Thakker (2003)) was 6.6e-07 cm/s; in [1] (with inhibitor, pH 7.4 iso-method, ref Wang et al. (2005)), 3e-07 cm/s. The “Papp, B⟶A” value in data set [1] (without inhibitor, pH 7.4 iso-method, ref Troutman and Thakker (2003)) is 1.04e-05 cm/s; in data set [1] (without inhibitor, pH 7.4 iso-method, ref Wang et al. (2005)), 1.8e-06 cm/s. Also, the recovery in data set [3] (MDCK-MDR1, pH 6) fell in the range of 92 to 97%; in data set [3] (MDCK-MDR1, pH 7.4) it was 98 to 108%; in data set [3] (MDCK-MDR1, pH 8) it was 83 to 98%; in [3] (MDCK-MDR1, pH 9), 60 to 71%. Also, the Papp is 1.2 ± 0.2 nm/s in [4] (MDCK-MDR1, pH 6); 1.1 ± 0.2 nm/s in data set [4] (MDCK-MDR1, pH 7.4); 1.4 ± 0.4 nm/s in data set [4] (MDCK-MDR1, pH 8); 1.9 ± 0.8 nm/s in data set [4] (MDCK-MDR1, pH 9). Further, the Papp B→A in data set [4] (MDCK-MDR1, pH 6) turned out to be 31.6 ± 1.9 nm/s; in [4] (MDCK-MDR1, pH 7.4), 40.5 ± 11.8 nm/s; in [4] (MDCK-MDR1, pH 8) it was 28 ± 0.8 nm/s; in data set [4] (MDCK-MDR1, pH 9) it was 4.3 ± 0.3 nm/s. For the same compound, the efflux ratio in [4] (MDCK-MDR1, pH 6) was found to be 26.8; in [4] (MDCK-MDR1, pH 7.4), 37.6; in data set [4] (MDCK-MDR1, pH 8), 20.2; in [4] (MDCK-MDR1, pH 9), 2.2. In data set [6] (neutral fraction at pH 7.4), the fn is 84%. In data set [7], the LogP0 is -6.3 P in cm/s. In addition, the “logPapp, A⟶B” value is recorded as -6.93 P in cm/s in data set [8] (pH 6, iso-pH method); -6.97 P in cm/s in [8] (pH 7.4, iso-pH method); -6.86 P in cm/s in data set [8] (pH 8, iso-pH method); -6.71 P in cm/s in data set [8] (pH 9, iso-pH method). Moreover, the “logPapp, B⟶A” value in data set [8] (pH 6, iso-pH method) is recorded as -5.50 P in cm/s; in [8] (pH 7.4, iso-pH method), -5.39 P in cm/s; in data set [8] (pH 8, iso-pH method), -5.55 P in cm/s; in [8] (pH 9, iso-pH method) it was -6.37 P in cm/s. Moreover, the pKa in [9] is given as 8.53.
Consider `COc1ccc2c(c1)c(CC(=O)O)c(C)n2C(=O)c1ccc(Cl)cc1` [Indomethacin], for which the logKhex/water in data set [10] was 0.58.
As to `CC[C@@H](CO)NC(=O)[C@@H]1C=C2c3cccc4c3c(cn4C)C[C@H]2N(C)C1` [Methysergide], in data set [1] (MDCK-MDR1, pH 7.4), the “Papp, B⟶A” value is on record as 75.3 and the “Papp, inhibitor” value is on record as 39.4. The compound also had a Factor difference in data set [2] (dog) of 2.

By Papp is commonly meant a coefficient for how fast a substance crosses the barrier. Higher therefore signals fast passage. As a reminder, the Papp B→A is the apparent permeability from the basolateral to the apical side of a cell layer. As usually defined, the efflux ratio is a quotient of directional permeabilities that is used to spot active efflux. One may read the pKa as the pH at which an ionisable group is half protonated.
